Results: ChEMBL document CHEMBL3885861, “Open TG-GATES”

Species: Rattus norvegicus
Experiment: Open TG-GATES - Regimen: Daily Repeat
Type: toxicity, organism-based, Sprague-Dawley
Design: regimen Daily Repeat, gender Male, age 6 weeks
Settings: in vivo, po, 300 mg/kg, route gavage, dose level Middle; for APTT / Bas / Eos / Fbg / Hb / Ht / Lym / MCH / MCHC / MCV / Mono / Neu / PT / Plat / RBC / Ret / WBC: tissue Blood; for KIDNEY_L / KIDNEY_R / KIDNEY_TOTAL: tissue Kidney; for LIVER: tissue Liver; for A/G / ALP / ALT / AST / BUN / CRE / Ca / Cl / DBIL / GLC / IP / K / LDH / Na / PL / RALB / TBIL / TC / TG / TP / gamma-GTP: tissue Plasma

## CC(=O)[C@@]1(O)CC[C@H]2[C@@H]3C=C(Cl)C4=CC(=O)CC[C@]4(C)[C@H]3CC[C@@]21C [CHLORMADINONE]
72 h, time 3 day
  TERMINAL_BW: 228.1 g
  APTT: 27.6 s
  Bas: 0%
  Eos: 1%
  Fbg: 334.4 mg/dL
  Hb: 14.1 g/dL
  Ht: 42.3%
  Lym: 76.8%
  MCH: 20.6 pg
  MCHC: 33.2%
  MCV: 62 fL
  Mono: 3.4%
  Neu: 18.4%
  PT: 14.8 s
  Plat: 130.2 x10_4/uL
  RBC: 684 x10_4/ul
  Ret: 5.9%
  WBC: 96.1 x10_2/uL
  KIDNEY_L: 1 g
  KIDNEY_R: 1 g
  KIDNEY_TOTAL: 1.9 g
  LIVER: 11 g
  A/G: 1.2
  ALP: 1623.2 IU/L
  ALT: 51 IU/L
  AST: 76.4 IU/L
  BUN: 17.2 mg/dL
  CRE: 0.2 mg/dL
  Ca: 11 mg/dL
  Cl: 106 meq/L
  DBIL: 0 mg/dL
  GLC: 194.2 mg/dL
  IP: 7.5 mg/dL
  K: 4.6 meq/L
  LDH: 243.2 IU/L
  Na: 141.4 meq/L
  PL: 172.4 mg/dL
  RALB: 3.2 g/dL
  TBIL: 0.008 mg/dL
  TC: 77 mg/dL
  TG: 181.4 mg/dL
  TP: 5.8 g/dL
  gamma-GTP: 1.4 IU/L
[…], time 7 day
  TERMINAL_BW: 257.8 g
  APTT: 29.5 s
  Bas: 0%
  Eos: 0.6%
  Fbg: 335.8 mg/dL
  Hb: 14.7 g/dL
  Ht: 42.9%
  Lym: 86%
  MCH: 20.8 pg
  MCHC: 34.2%
  MCV: 60.9 fL
  Mono: 2.4%
  Neu: 10.2%
  PT: 14.8 s
  Plat: 129.9 x10_4/uL
  RBC: 704.2 x10_4/ul
  Ret: 4.3%
  WBC: 119.7 x10_2/uL
  KIDNEY_L: 1 g
  KIDNEY_R: 1 g
  KIDNEY_TOTAL: 2.1 g
  LIVER: 12.6 g
  A/G: 1.1
  ALP: 1379.4 IU/L
  ALT: 53 IU/L
  AST: 70.8 IU/L
  BUN: 19.4 mg/dL
  CRE: 0.2 mg/dL
  Ca: 10.9 mg/dL
  Cl: 105.2 meq/L
  DBIL: 0 mg/dL
  GLC: 194.6 mg/dL
  IP: 7.4 mg/dL
  K: 4.6 meq/L
  LDH: 198.8 IU/L
  Na: 139.4 meq/L
  PL: 182.2 mg/dL
  RALB: 3.2 g/dL
  TBIL: 0 mg/dL
  TC: 91.2 mg/dL
  TG: 205.8 mg/dL
  TP: 6 g/dL
  gamma-GTP: 1.8 IU/L
[…], time 14 day
  TERMINAL_BW: 297.5 g
  APTT: 28.4 s
  Bas: 0%
  Eos: 1%
  Fbg: 326.6 mg/dL
  Hb: 15.2 g/dL
  Ht: 44.7%
  Lym: 78%
  MCH: 19.3 pg
  MCHC: 34%
  MCV: 56.8 fL
  Mono: 2.6%
  Neu: 17.6%
  PT: 14.8 s
  Plat: 105.8 x10_4/uL
  RBC: 787.4 x10_4/ul
  Ret: 3.1%
  WBC: 84.6 x10_2/uL
  KIDNEY_L: 1.1 g
  KIDNEY_R: 1.1 g
  KIDNEY_TOTAL: 2.2 g
  LIVER: 13.1 g
  A/G: 1.1
  ALP: 1447.6 IU/L
  ALT: 44.2 IU/L
  AST: 67 IU/L
  BUN: 20 mg/dL
  CRE: 0.2 mg/dL
  Ca: 10.5 mg/dL
  Cl: 106.8 meq/L
  DBIL: 0 mg/dL
  GLC: 196.2 mg/dL
  IP: 6.9 mg/dL
  K: 4.5 meq/L
  LDH: 161.4 IU/L
  Na: 141.4 meq/L
  PL: 171.6 mg/dL
  RALB: 3.1 g/dL
  TBIL: 0.002 mg/dL
  TC: 83.8 mg/dL
  TG: 173 mg/dL
  TP: 6 g/dL
  gamma-GTP: 1.8 IU/L
[…], time 28 day
  TERMINAL_BW: 346.1 g
  APTT: 28 s
  Bas: 0%
  Eos: 1%
  Fbg: 313.2 mg/dL
  Hb: 16.2 g/dL
  Ht: 46.4%
  Lym: 82.8%
  MCH: 18.9 pg
  MCHC: 34.9%
  MCV: 54 fL
  Mono: 2.2%
  Neu: 12.8%
  PT: 14.8 s
  Plat: 92.9 x10_4/uL
  RBC: 860 x10_4/ul
  Ret: 2%
  WBC: 105.1 x10_2/uL
  KIDNEY_L: 1.2 g
  KIDNEY_R: 1.2 g
  KIDNEY_TOTAL: 2.4 g
  LIVER: 13.4 g
  A/G: 1.1
  ALP: 1248.8 IU/L
  ALT: 61.6 IU/L
  AST: 76.6 IU/L
  BUN: 19.4 mg/dL
  CRE: 0.2 mg/dL
  Ca: 10.6 mg/dL
  Cl: 105.6 meq/L
  DBIL: 0 mg/dL
  GLC: 186.8 mg/dL
  IP: 6 mg/dL
  K: 4 meq/L
  LDH: 156.2 IU/L
  Na: 141.2 meq/L
  PL: 171 mg/dL
  RALB: 3.3 g/dL
  TBIL: 0.012 mg/dL
  TC: 89.2 mg/dL
  TG: 153.6 mg/dL
  TP: 6.3 g/dL
  gamma-GTP: 2.4 IU/L
